pEC50: −log10 of the molar value.
Biological target: human APJ receptor (Homo sapiens (Human), UniProt P35414)
Assay: Intracellular cAMP accumulation assay (APJ hcAMP, HTRF)
Assay type: cell-based
Details: HEK293 cells stably expressing human APJ receptor; inhibition of forskolin-mediated cAMP production; read-out: Human APJ cAMP EC50 Potency range
Method in brief: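 HEK293 cells stably expressing human APJ, 5,000 per well, incubated 30 min at rt with compound, […] and 2 μM forskolin. cAMP measured by HTRF against a cAMP standard curve as inhibition of forskolin-driven production. EC50 from variable-slope sigmoidal fit.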

Sequence of human APJ receptor (P35414 whole entry): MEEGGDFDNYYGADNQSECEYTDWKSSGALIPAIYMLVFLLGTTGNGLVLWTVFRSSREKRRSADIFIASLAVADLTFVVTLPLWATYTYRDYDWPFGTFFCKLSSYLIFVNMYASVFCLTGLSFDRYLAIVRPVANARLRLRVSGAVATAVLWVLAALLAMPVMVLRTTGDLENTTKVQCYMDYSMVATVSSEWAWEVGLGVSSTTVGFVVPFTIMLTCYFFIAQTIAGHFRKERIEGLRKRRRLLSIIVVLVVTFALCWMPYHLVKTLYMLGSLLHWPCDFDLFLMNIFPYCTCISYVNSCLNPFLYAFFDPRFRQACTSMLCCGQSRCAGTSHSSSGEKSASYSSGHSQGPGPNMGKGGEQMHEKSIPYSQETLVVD

Structure (SMILES)	pEC50
CCCCc1nc(=O)c(S(=O)(=O)c2ccc(-c3ccccc3C(=O)N(C)C)cc2)c(O)n1[C@@H](CC)c1cccc(C#N)c1 [Example 513, 4′-({2-butyl-1-[(1S)-1-(3-cyanophenyl)propyl]-6-hydroxy-4-oxo-1,4-dihydropyrimidin-5-yl}sulfonyl)-N,N-dimethyl-[1,1′-biphenyl]-2-carboxamide]	8.00 to 11.00
CCCCc1nc(=O)c(S(=O)(=O)c2ccc(-c3ccc(F)cc3C(N)=O)cc2)c(O)n1[C@@H](CC)c1ccc(C#N)c(F)c1 [Example 514, 4′-({2-butyl-1-[(1S)-1-(4-cyano-3-fluorophenyl)propyl]-6-hydroxy-4-oxo-1,4-dihydropyrimidin-5-yl}sulfonyl)-4-fluoro-[1,1′-biphenyl]-2-carboxamide]	8.00 to 11.00
CCCCc1nc(=O)c(S(=O)(=O)c2ccc(-c3cccnc3C)cc2)c(O)n1[C@@H](CC)c1ccc(C#N)c(F)c1 [Example 515, 4-[(1S)-1-{2-butyl-6-hydroxy-5-[4-(2-methylpyridin-3-yl)benzenesulfonyl]-4-oxo-1,4-dihydropyrimidin-1-yl}propyl]-2-fluorobenzonitrile]	8.00 to 11.00
CCCCc1nc(=O)c(S(=O)(=O)c2ccc(-c3ccncc3C)cc2)c(O)n1[C@@H](CC)c1ccc(C#N)c(F)c1 [Example 516, 4-[(1S)-1-{2-butyl-6-hydroxy-5-[4-(3-methylpyridin-4-yl)benzenesulfonyl]-4-oxo-1,4-dihydropyrimidin-1-yl}propyl]-2-fluorobenzonitrile]	8.00 to 11.00
CCCCc1nc(=O)c(S(=O)(=O)c2ccc(-c3ccnc(F)c3C)cc2)c(O)n1[C@@H](CC)c1ccc(C#N)c(F)c1 [Example 517, 4-[(1S)-1-{2-butyl-5-[4-(2-fluoro-3-methylpyridin-4-yl)benzenesulfonyl]-6-hydroxy-4-oxo-1,4-dihydropyrimidin-1-yl}propyl]-2-fluorobenzonitrile]	8.00 to 11.00
CCCCc1nc(=O)c(S(=O)(=O)c2ccc(-c3cccn(C)c3=O)cc2)c(O)n1[C@@H](CC)c1ccc(C#N)c(F)c1 [Example 518, 4-[(1S)-1-{2-butyl-6-hydroxy-5-[4-(1-methyl-2-oxo-1,2-dihydropyridin-3-yl)benzenesulfonyl]-4-oxo-1,4-dihydropyrimidin-1-yl}propyl]-2-fluorobenzonitrile]	8.00 to 11.00
CCCCc1nc(=O)c(S(=O)(=O)c2ccc(-c3ccc(F)nc3C)cc2)c(O)n1[C@@H](CC)c1ccc(C#N)c(F)c1 [Example 519, 4-[(1S)-1-{2-butyl-5-[4-(6-fluoro-2-methylpyridin-3-yl)benzenesulfonyl]-6-hydroxy-4-oxo-1,4-dihydropyrimidin-1-yl}propyl]-2-fluorobenzonitrile]	8.00 to 11.00
CCCCc1nc(=O)c(S(=O)(=O)c2ccc(-c3ccccc3C(=O)NC)cc2)c(O)n1[C@@H](CC)c1ccc(C#N)c(F)c1 [Example 520, 4′-({2-butyl-1-[(1S)-1-(4-cyano-3-fluorophenyl)propyl]-6-hydroxy-4-oxo-1,4-dihydropyrimidin-5-yl}sulfonyl)-N-methyl-[1,1′-biphenyl]-2-carboxamide]	8.00 to 11.00
CCCCc1nc(=O)c(S(=O)(=O)c2ccc(-c3ccccc3C(=O)N(C)C)cc2)c(O)n1[C@@H](CC)c1ccc(C#N)c(F)c1 [Example 521, 4′-({2-butyl-1-[(1S)-1-(4-cyano-3-fluorophenyl)propyl]-6-hydroxy-4-oxo-1,4-dihydropyrimidin-5-yl}sulfonyl)-N,N-dimethyl-[1,1′-biphenyl]-2-carboxamide]	8.00 to 11.00
CCCCc1nc(=O)c(S(=O)(=O)c2ccc(-c3ccccc3C(=O)NC3CC3)cc2)c(O)n1[C@@H](CC)c1cccc(C#N)c1 [Example 522, 4′-({2-butyl-1-[(1S)-1-(3-cyanophenyl)propyl]-6-hydroxy-4-oxo-1,4-dihydropyrimidin-5-yl}sulfonyl)-N-cyclopropyl-[1,1′-biphenyl]-2-carboxamide]	8.00 to 11.00
CCCCc1nc(=O)c(S(=O)(=O)c2ccc(-c3cccc(C(=O)NC)c3)cc2)c(O)n1[C@@H](CC)c1cccc(C#N)c1 [Example 523, 4′-({2-butyl-1-[(1S)-1-(3-cyanophenyl)propyl]-6-hydroxy-4-oxo-1,4-dihydropyrimidin-5-yl}sulfonyl)-N-methyl-[1,1′-biphenyl]-3-carboxamide]	8.00 to 11.00
CCCCc1nc(=O)c(S(=O)(=O)c2ccc(-c3cccc4c3C(=O)NC4)cc2)c(O)n1[C@H](c1cccc(C#N)c1)C1CC1 [Example 524, 3-[(S)-{2-butyl-6-hydroxy-4-oxo-5-[4-(3-oxo-2,3-dihydro-1H-isoindol-4-yl)benzenesulfonyl]-1,4-dihydropyrimidin-1-yl}(cyclopropyl)methyl] benzonitrile]	8.00 to 11.00

Second part, the compound after the results:

pEC50	Structure (SMILES)
8.00 to 11.00	CCCCc1nc(=O)c(S(=O)(=O)c2ccc(-c3ccc(C(N)=O)cc3F)cc2)c(O)n1[C@@H](CC)c1cccc(C#N)c1 [Example 525, 4′-({2-butyl-1-[(1S)-1-(3-cyanophenyl)propyl]-6-hydroxy-4-oxo-1,4-dihydropyrimidin-5-yl}sulfonyl)-2-fluoro-[1,1′-biphenyl]-4-carboxamide]
8.00 to 11.00	CCCCc1nc(=O)c(S(=O)(=O)c2ccc(-c3ccnc(F)c3C)cc2)c(O)n1[C@@H](CC)c1ccnc(C#N)c1 [Example 526, 4-[(1S)-1-{2-butyl-5-[4-(2-fluoro-3-methylpyridin-4-yl)benzenesulfonyl]-6-hydroxy-4-oxo-1,4-dihydropyrimidin-1-yl}propyl]pyridine-2-carbonitrile]
8.00 to 11.00	CCCCc1nc(=O)c(S(=O)(=O)c2ccc(-c3ccncc3C)cc2)c(O)n1[C@@H](CC)C1CCOCC1 [Example 527, 2-butyl-6-hydroxy-5-[4-(3-methylpyridin-4-yl)benzenesulfonyl]-1-[(1S)-1-(oxan-4-yl)propyl]-1,4-dihydropyrimidin-4-one]
8.00 to 11.00	CCCCc1nc(=O)c(S(=O)(=O)c2ccc(-c3ccnc(F)c3C)cc2)c(O)n1[C@@H](CC)C1CCOCC1 [Example 528, 2-butyl-5-[4-(2-fluoro-3-methylpyridin-4-yl)benzenesulfonyl]-6-hydroxy-1-[(1S)-1-(oxan-4-yl)propyl]-1,4-dihydropyrimidin-4-one]
8.00 to 11.00	CCCCc1nc(=O)c(S(=O)(=O)c2ccc(-c3cccc4c3C(=O)NC4)cc2)c(O)n1[C@@H](CC)c1cccc(C#N)c1 [Example 529, 3-[(1S)-1-{2-butyl-6-hydroxy-4-oxo-5-[4-(3-oxo-2,3-dihydro-1H-isoindol-4-yl)benzenesulfonyl]-1,4-dihydropyrimidin-1-yl}propyl]benzonitrile]
8.00 to 11.00	CCCCc1nc(=O)c(S(=O)(=O)c2ccc(-c3ccccc3C(=O)NC)cc2)c(O)n1[C@H](c1cccc(C#N)c1)C1CC1 [Example 530, 4′-({2-butyl-1-[(S)-(3-cyanophenyl)(cyclopropyl)methyl]-6-hydroxy-4-oxo-1,4-dihydropyrimidin-5-yl}sulfonyl)-N-methyl-[1,1′-biphenyl]-2-carboxamide]
7.00 to 8.00	CCCCc1nc(=O)c(S(=O)(=O)c2ccc(-c3cccc(C(C)(C)O)c3)cc2)c(O)n1[C@@H](CC)c1cccc(C#N)c1 [Example 531, 3-[(1S)-1-(2-buty1-6-hydroxy-5-{[3′-(2-hydroxypropan-2-yl)-[1,1′-biphenyl]-4-yl]sulfonyl}-4-oxo-1,4-dihydropyrimidin-1-yl)propyl]benzonitrile]
7.00 to 8.00	CCCCc1nc(=O)c(S(=O)(=O)c2ccc(-c3ccc(C(C)(C)O)cc3)cc2)c(O)n1[C@@H](CC)c1cccc(C#N)c1 [Example 532, 3-[(1S)-1-(2-butyl-6-hydroxy-5-{[4′-(2-hydroxypropan-2-yl)-[1,1′-biphenyl]-4-yl]sulfonyl}-4-oxo-1,4-dihydropyrimidin-1-yl)propyl]benzonitrile]
8.00 to 11.00	CCCCc1nc(=O)c(S(=O)(=O)c2ccc(-c3ccccc3C(=O)NC3CC3)cc2)c(O)n1[C@H](c1cccc(C#N)c1)C1CC1 [Example 533, 4′-({2-butyl-1-[(S)-(3-cyanophenyl)(cyclopropyl)methyl]-6-hydroxy-4-oxo-1,4-dihydropyrimidin-5-yl}sulfonyl)-N-cyclopropyl-[1,1′-biphenyl]-2-carboxamide]
8.00 to 11.00	CCCCc1nc(=O)c(S(=O)(=O)c2ccc(-c3cccc(C(=O)NC4CC4)c3F)cc2)c(O)n1[C@@H](CC)c1cccc(C#N)c1 [Example 534, 4′-({2-butyl-1-[(1S)-1-(3-cyanophenyl)propyl]-6-hydroxy-4-oxo-1,4-dihydropyrimidin-5-yl}sulfonyl)-N-cyclopropyl-2-fluoro-[1,1′-biphenyl]-3-carboxamide]
8.00 to 11.00	CCCCc1nc(=O)c(S(=O)(=O)c2ccc(-c3cccc4c3CNC4=O)cc2)c(O)n1[C@@H](CC)c1cccc(C#N)c1 [Example 535, 3-[(1S)-1-{2-butyl-6-hydroxy-4-oxo-5-[4-(1-oxo-2,3-dihydro-1H-isoindol-4-yl)benzenesulfonyl]-1,4-dihydropyrimidin-1-yl}propyl]benzonitrile]
8.00 to 11.00	CCCCc1nc(=O)c(S(=O)(=O)c2ccc(-c3cc(F)ncc3C)cc2)c(O)n1[C@@H](CC)c1cccc(C#N)c1 [Example 536, 3-[(1S)-1-{2-butyl-5-[4-(2-fluoro-5-methylpyridin-4-yl)benzenesulfonyl]-6-hydroxy-4-oxo-1,4-dihydropyrimidin-1-yl}propyl]benzonitriIe]
8.00 to 11.00	CCCCc1nc(=O)c(S(=O)(=O)c2ccc(-c3ccnc(F)c3C)cc2)c(O)n1[C@H]1CCc2c(C#N)cccc21 [Example 537, (1S)-1-{2-butyl-5-[4-(2-fluoro-3-methylpyridin-4-yl)benzenesulfonyl]-6-hydroxy-4-oxo-1,4-dihydropyrimidin-1-yl}-2,3-dihydro-1H-indene-4-carbonitrile]
8.00 to 11.00	CCCCc1nc(=O)c(S(=O)(=O)c2ccc(-c3cccc(F)c3C(N)=O)cc2)c(O)n1[C@@H](CC)c1cccc(C#N)c1 [Example 538, 4′-({2-butyl-1-[(1S)-1-(3-cyanophenyl)propyl]-6-hydroxy-4-oxo-1,4-dihydropyrimidin-5-yl}sulfonyl)-3-fluoro-[1,1′-biphenyl]-2-carboxamide]

— US10508104B2, “6-hydroxy-5-(phenyl/heteroarylsulfonyl)pyrimidin-4(1H)-one as APJ agonists” (Bristol-Myers Squibb Company, priority 2016, dated 2019)
